{"source": "patent US20120142005A1", "about": "“METHOD FOR SCREENING OF REGENERATIVE MEDICINE” (TAKEDA PHARMACEUTICAL COMPANY LIMITED, priority 2009, published 2012)", "type_in_all_cases": "cell-based", "key": {"[1]": {"system": "human mesenchymal stem cells", "assay": "Bone differentiation of human mesenchymal stem cells: staining with alkaline phosphatase", "conditions": "8 days", "protocol": "To further verify the influence of compounds on bone differentiation, staining with alkaline phosphatase was performed. Simultaneously with inducing bone differentiation, 3 μM BIO or 10 μM BrdU was added, followed by adhesion culture for 8 days. After culture, cells were fixed with 4% paraformaldehyde (Wako Pure Chemical Industries Ltd.) for 30 minutes and then washed 3 times with PBS. Alkaline phosphatase kit III (Vector Laboratories) was used according to the appended protocol to stain with alkaline phosphatase."}, "[2]": {"system": "human mesenchymal stem cells", "assay": "Bone differentiation of human mesenchymal stem cells: amount of calcium accumulated in cells", "conditions": "15 days", "protocol": "In addition, the amount of calcium accumulated in cells was examined. Simultaneously with inducing bone differentiation, 3 μM BIO or 10 μM BrdU was added, followed by adhesion culture for 15 days. After culture, cells were washed with PBS, followed by dissolving the cells in a solution consisting of 10 mM Tris-HCl and 0.2% TritonX-100. Using a portion of the solution, the protein concentration was measured employing BCA protein assay kit (Pierce). Hydrochloric acid was added to a final concentration of 0.5 N to the remaining solution, which was then shaken overnight. The amount of calcium dissolving in the solution containing 0.5 N hydrochloric acid was measured using Calcium E-test Kit Wako (Wako Pure Chemical Industries Ltd.). The amount of calcium used the value corrected for the amount of protein for analysis."}, "[3]": {"system": "human mesenchymal stem cells", "assay": "Bone differentiation of human mesenchymal stem cells: expression of Alp1, Runx2, Col1a1 and PTHR by quantitative RT-PCR", "conditions": "8 days; for level of expression of Alp1: 3 μM compound added with bone differentiation induction, relative to DMSO control", "protocol": "Then, the influence of the selected compounds was examined on bone differentiation of human mesenchymal stem cells. The human mesenchymal stem cells were maintained and cultured using the same technique as in Example 6. Cells were seeded on a 96-well plate to 1,000 cells per well and then cultured overnight using the growth medium. Thereafter, the bone differentiation was induced by exchanging the medium with a medium made by addition of 10% calf fetal serum, 2 mM GlutaMAX-1, 10 mMβ-glycerophosphate (Wako Pure Chemical Industries Ltd.), 0.05 mM ascorbic acid-2-phosphate (Wako Pure Chemical Industries Ltd.), 0.1 μM dexamethasone (Wako Pure Chemical Industries Ltd.), and 1× penicillin-streptomycin (Sigma) to low-glucose DMEM. Simultaneously with inducing bone differentiation, each selected compound was added to a final concentration of 3 μM, followed by adhesion culture for 8 days. After the end of culture, the level of expression of Alkaline phosphatase (Alp1) as an initial osteoblast marker was measured using the same technique as in Example 1.\nThe expression of other bone differentiation markers for which BIO or BrdU was added was also examined. Adhesion culture was performed for 8 days after adding BIO or BrdU, followed by measuring the levels of expression of runt-related transcription factor 2 (Runx2), collagen type 1 alpha 1 (Col1a1), and parathyroid hormone receptor (PTHR) using the same technique as in Example 1."}, "[4]": {"system": "human mesenchymal stem cells", "assay": "Adipose differentiation of human mesenchymal stem cells: expression of adiponectin and PPARγ by quantitative RT-PCR", "conditions": "for level of expression of adiponectin: 3 μM compound added with adipose differentiation induction, 5 days, relative to DMSO control; for level of expression of PPARγ: adipose differentiation, 5 days (FIG. 12a)", "protocol": "There was possibility that the selected compounds control the differentiation of adult stem cells as well as ES cells. Accordingly, the influence of these selected compounds was examined on adipose differentiation of human mesenchymal stem cells. The human mesenchymal stem cells were purchased from Lonza and subjected to adhesion culturing using a medium made by addition of 10% calf fetal serum, 2 mM GlutaMAX-1, and 1× penicillin-streptomycin (Sigma) (hereinafter referred to as “growth medium”) to low-glucose DMEM (Invitrogen). Upon induction of an adipose differentiation, cells were seeded on a 96-well plate to 3,000 cells per well and then cultured overnight using the growth medium. Thereafter, the adipose differentiation was induced by exchanging the growth medium with an adipose differentiation induction medium (i.e., a medium made by addition of 10% calf fetal serum, 2 mM GlutaMAX-1, 0.5 mM 3-isobutyl-1-methylxanthine (IBMX, Wako Pure Chemical Industries Ltd.), 10 μg/ml insulin (Wako Pure Chemical Industries Ltd.), 1 μM dexamethasone (Wako Pure Chemical Industries Ltd.), 200 μM indomethacin (Wako Pure Chemical Industries Ltd.), and 1× penicillin-streptomycin (Sigma) to high-glucose DMEM (Invitrogen)). Simultaneously with inducing adipose differentiation, each selected compound was added to a final concentration of 3 μM, followed by culture for 5 days. After 5 days, the level of expression of adiponectin as a fat cell marker was measured using the same technique as that described in Example 1.\nIn addition, the level of expression of PPARγ as a master regulator of adipose differentiation for which the 3 compounds (Y-27632, HA-100 and capsazepine) were each added was also measured using the same technique."}, "[5]": {"system": "human mesenchymal stem cells", "assay": "Adipose differentiation of human mesenchymal stem cells: amount of adiponectin in culture solution, ELISA", "conditions": "adhesion culture 8 days", "protocol": "In addition, when each of the 3 compounds was added, the amount of adiponectin contained in a corresponding culture solution was measured. Simultaneously with inducing adipose differentiation, 10 μM Y-27632, 10 μM HA-100, or 3 μM capsazepine was added, followed by adhesion culture for 8 days. After culture, the amount of adiponectin contained in the culture solution was measured using a human adiponectin ELISA kit (R&D systems)."}, "[6]": {"system": "human mesenchymal stem cells", "assay": "Adipose differentiation of human mesenchymal stem cells: fat droplet formation, oil red O staining", "conditions": "adhesion culturing 5 days", "protocol": "The influence of the 3 compounds on fat droplet formation was then examined. Simultaneously with inducing adipose differentiation, 10 μM Y-27632, 10 μM HA-100, or 3 μM capsazepine was added to an adipose differentiation induction medium, followed by adhesion culturing for 5 days. Thereafter, the cells were fixed with 4% paraformaldehyde (Wako Pure Chemical Industries Ltd.) for 30 minutes and then washed 3 times with PBS. In addition, the cells were stained with 0.36% oil red 0 (Chemicon) at room temperature for 50 minutes and then washed 3 times with distilled water, followed by observing and photographing the cell."}}, "data": [{"smiles": "O=C1Nc2cc(Br)ccc2/C1=C1/Nc2ccccc2/C1=N\\O", "note": "[BIO, 6-bromoindirubin-3′ oxime]", "values": [{"measurement": "stainability with alkaline phosphatase (alkaline phosphatase activity)", "setting": "[1]; 3 μM compound", "result": "increased the stainability with alkaline phosphatase"}, {"measurement": "amount of calcium in cells, corrected for amount of protein", "setting": "[2]; 3 μM compound", "result": "increased the amount of calcium in cells"}, {"measurement": "level of expression of Alp1", "setting": "[3]", "result": "noticeably increasing the level of expression of Alp1"}, {"measurement": "level of expression of Col1a1", "setting": "[3]; 3 μM compound", "result": "noticeably increased"}, {"measurement": "level of expression of PTHR", "setting": "[3]; 3 μM compound", "result": "noticeably increased"}, {"measurement": "level of expression of Runx2", "setting": "[3]; 3 μM compound", "result": "noticeably increased"}]}, {"smiles": "O=c1[nH]c(=O)n([C@H]2C[C@H](O)[C@@H](CO)O2)cc1Br", "note": "[BrdU, 5-Bromo-2′-deoxyuridine]", "values": [{"measurement": "stainability with alkaline phosphatase (alkaline phosphatase activity)", "setting": "[1]; 10 μM compound", "result": "increased the stainability with alkaline phosphatase"}, {"measurement": "amount of calcium in cells, corrected for amount of protein", "setting": "[2]; 10 μM compound", "result": "increased the amount of calcium in cells"}, {"measurement": "level of expression of Alp1", "setting": "[3]", "result": "noticeably increasing the level of expression of Alp1"}, {"measurement": "level of expression of Col1a1", "setting": "[3]; 10 μM compound", "result": "noticeably increased"}, {"measurement": "level of expression of PTHR", "setting": "[3]; 10 μM compound", "result": "noticeably increased"}, {"measurement": "level of expression of Runx2", "setting": "[3]; 10 μM compound", "result": "noticeably increased"}]}, {"smiles": "O=S(=O)(c1cccc2cnccc12)N1CCNCC1", "note": "[HA-100]", "values": [{"measurement": "level of expression of adiponectin", "setting": "[4]", "result": "increase the level of expression of adiponectin"}, {"measurement": "level of expression of PPARγ", "setting": "[4]", "result": "increasing the level of expression of PPARγ in a concentration-dependent manner"}, {"measurement": "amount of adiponectin contained in the culture solution", "setting": "[5]; 10 μM compound", "result": "noticeably increased the amount of adiponectin"}, {"measurement": "amount of fat droplets (oil red O) compared to DMSO control", "setting": "[6]; 10 μM compound", "result": "the amount of fat droplets increased"}]}, {"smiles": "C[C@@H](N)[C@H]1CC[C@H](C(=O)Nc2ccncc2)CC1", "note": "[Y-27632]", "values": [{"measurement": "level of expression of adiponectin", "setting": "[4]", "result": "increase the level of expression of adiponectin"}, {"measurement": "level of expression of PPARγ", "setting": "[4]", "result": "increasing the level of expression of PPARγ in a concentration-dependent manner"}, {"measurement": "amount of adiponectin contained in the culture solution", "setting": "[5]; 10 μM compound", "result": "noticeably increased the amount of adiponectin"}, {"measurement": "amount of fat droplets (oil red O) compared to DMSO control", "setting": "[6]; 10 μM compound", "result": "the amount of fat droplets increased"}]}, {"smiles": "Oc1cc2c(cc1O)CN(C(=S)NCCc1ccc(Cl)cc1)CCC2", "note": "[capsazepine]", "values": [{"measurement": "level of expression of adiponectin", "setting": "[4]", "result": "increase the level of expression of adiponectin"}, {"measurement": "amount of adiponectin contained in the culture solution", "setting": "[5]; 3 μM compound", "result": "no action of increasing the amount of adiponectin"}, {"measurement": "amount of fat droplets (oil red O) compared to DMSO control", "setting": "[6]; 3 μM compound", "result": "no noticeable activity of increasing fat droplet formation"}]}]}
